# Tested on: Mycobacterium tuberculosis H37Rv strains
# Experiment: In vitro assay for antimicrobial susceptibility (microplate Alamar blue MIC)
# Assay type: cell-based
# Conditions: Mycobacterium tuberculosis, H37RV, 7H9, Alamar blue, inhibition ≧90%; read-out: MIC (μg/mL) against H37Rv
row,Compound,MIC [µg/mL]
1,"COC1CCC(/N=c2\cc3n(-c4ccc(Cl)cc4)c4ccccc4nc-3cc2Nc2cnccn2)CC1 (stereo not drawn) [TBI-1091, 5-(4-Chlorophenyl)-3-(4-methoxycyclohexyl)imino-2-(pyrazin-2-yl)amino-3,5-dihydrophenazine]",0.018

# Same assay, conditions: Mycobacterium tuberculosis, H37RV, in vitro, Mycobacterium tuberculosis H37Rv strains; read-out: MIC (μg/mL) against H37Rv
row,Compound,MIC [µg/mL]
1,"COc1ccc2nc3cc(Nc4ccc(C)nc4)/c(=N/C4CC4)cc-3n(-c3ccc(Cl)cc3)c2c1 [TBI-868, 7-Methoxy-5-(4-chlorophenyl)-3-cyclopropylimino-2-(6-methyl-3-pyridyl)amino-3,5-dihydrophenazine]",0.028
2,"CC(C)/N=c1\cc2n(-c3ccc(OC(F)(F)F)cc3)c3ccccc3nc-2cc1Nc1cccnc1 [TBI-157, 5-(4-Trifluoromethoxyphenyl)-3-(1-methylethyl)imino-2-(3-pyridyl)amino-3,5-dihydrophenazine]",0.03
3,C/N=c1\cc2n(-c3ccccc3)c3ccccc3nc-2cc1Nc1cccnc1C [TBI-078],0.019
4,"COc1ncccc1Nc1cc2nc3cc(F)ccc3n(-c3ccc(OC(F)(F)F)cc3)c-2c/c1=N\C1CCC(OC)CC1 (stereo not drawn) [TBI-861, 8-Fluoro-5-(4-trifluoromethoxyphenyl)-3-(4-methoxycyclohexyl)imino-2-(2-methoxy-3-pyridyl)amino-3,5-dihydrophenazine]",0.058
5,"COc1ncccc1Nc1cc2nc3ccccc3n(-c3ccc(Cl)cc3)c-2c/c1=N\C1CCN(C)CC1 [TBI-440, 5-(4-Chlorophenyl)-3-(N-methyl-4-piperidyl)imino-2-(2-methoxy-3-pyridyl)amino-3,5-dihydrophenazine]",0.06
6,"COCC(COC)/N=c1\cc2n(-c3cccc(Cl)c3)c3ccccc3nc-2cc1Nc1cccnc1OC [TBI-825, 5-(3-Chlorophenyl)-3-(1,3-dimethoxyisopropyl)imino-2-(2-methoxy-3-pyridyl)amino-3,5-dihydrophenazine]",0.125
7,"CO[C@H]1CC[C@H](/N=c2\cc3n(-c4ccc(Cl)cc4)c4ccccc4nc-3cc2Nc2cncc(Br)c2)CC1 [TBI-881, 5-(4-Chlorophenyl)-3-(1′,4′-trans-4-methoxycyclohexyl)imino-2-(5-bromo-3-pyridyl)amino-3,5-dihydrophenazine]",0.052
8,Cc1ccc(Nc2cc3nc4ccccc4n(-c4ccc(Cl)c(Cl)c4)c-3c/c2=N\C(C)C)cn1 [TBI-353],0.025
9,"Cc1ccc(Nc2cc3nc4ccccc4n(-c4ccc(C(F)(F)F)cc4)c-3c/c2=N\CCN2CCOCC2)cn1 [TBI-698, 5-(4-Trifluoromethylphenyl)-3-(2-morpholinoethyl)imino-2-(6-meth-3-pyridyl)amino-3,5-dihydrophenazine]",0.108
10,"Cc1cncc(Nc2cc3nc4ccccc4n(-c4ccccc4)c-3c/c2=N\C2CC2)c1 [TBI-096, 5-Phenyl-3-cyclopropylimino-2-(5-methyl-3-pyridyl)amino-3,5-dihydrophenazine]",0.069
11,"COC1CCC(/N=c2\cc3n(-c4ccc(OC(F)(F)F)cc4)c4ccccc4nc-3cc2Nc2cccnc2)CC1 (stereo not drawn) [TBI-162, 5-(4-Trifluoromethoxyphenyl)-3-(4-methoxycyclohexyl)imino-2-(3-pyridyl)amino-3,5-dihydrophenazine]",0.03
12,"Cc1ncccc1Nc1cc2nc3ccccc3n(-c3ccc(F)cc3)c-2c/c1=N\C1CCSCC1 [TBI-1043, 5-(4-Fluorophenyl)-3-(4-tetrahydrothiopyranyl)imino-2-(2-methyl-3-pyridyl)amino-3,5-dihydrophenazine]",0.021
13,Cc1ncccc1Nc1cc2nc3ccccc3n(-c3ccccc3)c-2c/c1=N\C1CCC(O)CC1 (stereo not drawn) [TBI-092],0.5
14,"CC(C)CN1CCC(/N=c2\cc3n(-c4ccc(C(F)(F)F)cc4)c4ccccc4nc-3cc2Nc2cccnc2)CC1 [TBI-687, 5-(4-Trifluoromethylphenyl)-3-(N-isobutyl-4-piperidyl)imino-2-(3-pyridyl)amino-3,5-dihydrophenazine]",0.06
15,"CC(=O)Nc1ccc(Nc2cc3nc4ccccc4n(-c4ccc(F)cc4)c-3c/c2=N\C2CCN(C)CC2)cn1 [TBI-912, 5-(4-Fluorophenyl)-3-(N-methyl-4-piperidyl)imino-2-(6-acetamino-3-pyridyl)amino-3,5-dihydrophenazine]",0.351
16,COc1ccc2nc3cc(Nc4ccc(C)nc4)/c(=N/C(C)C)cc-3n(-c3ccc(Cl)cc3)c2c1 [TBI-898],0.25
17,"Cc1ccc(Nc2cc3nc4ccc(F)cc4n(-c4ccc(Cl)cc4)c-3c/c2=N\C2CCCCC2)cn1 [TBI-918, 7-Fluoro-5-(4-chlorophenyl)-3-cyclohexylimino-2-(6-methyl-3-pyridyl)amino-3,5-dihydrophenazine]",0.253
18,Cc1ccc(Nc2cc3nc4ccccc4n(-c4ccc(Cl)cc4)c-3c/c2=N\C(C)C)cn1 [TBI-441],0.06
19,"COc1ccc2nc3cc(Nc4cccnc4OC)/c(=N/C4CCC4)cc-3n(-c3ccc(Cl)cc3)c2c1 [TBI-895, 7-Methoxy-5-(4-chlorophenyl)-3-cyclobutylimino-2-(2-methoxy-3-pyridyl)amino-3,5-dihydrophenazine]",0.125

row,Compound,MIC [µg/mL]
1,"Cc1cncc(Nc2cc3nc4ccccc4n(-c4ccc(C(F)(F)F)cc4)c-3c/c2=N\C2CC2)c1 [TBI-725, 5-(4-Trifluoromethylphenyl)-3-cyclopropylimino-2-(5-methyl-3-pyridyl)amino-3,5-dihydrophenazine]",0.031
2,"Cc1ccc(-n2c3c/c(=N\C4CCN(C)CC4)c(Nc4ccc(C)nc4)cc-3nc3ccccc32)cc1 [TBI-319, 5-(4-Methylphenyl)-3-(N-methyl-4-piperidyl)imino-2-(6-methyl-3-pyridyl)amino-3,5-dihydrophenazine]",0.173
3,"CC(C)/N=c1\cc2n(-c3ccc(F)c(F)c3)c3ccccc3nc-2cc1Nc1cccnc1 [TBI-525, 5-(3,4-Difluorophenyl)-3-(1-methylethyl)imino-2-(3-pyridyl)amino-3,5-dihydrophenazine]",0.058
4,"COc1ncccc1Nc1cc2nc3ccccc3n(-c3ccc(F)c(F)c3)c-2c/c1=N\C1CCCCC1 [TBI-531, 5-(3,4-Difluorophenyl)-3-cyclohexylimino-2-(2-methoxy-3-pyridyl)amino-3,5-dihydrophenazine]",0.03
5,"COc1ccc2nc3cc(Nc4ccc(C)nc4)/c(=N/C4CCC(OC)CC4)cc-3n(-c3ccc(Cl)cc3)c2c1 (stereo not drawn) [TBI-867, 7-Methoxy-5-(4-chlorophenyl)-3-(4-methoxycyclohexyl)imino-2-(6-methyl-3-pyridyl-amino)-3,5-dihydrophenazine]",0.058
6,COC1CCC(/N=c2\cc3n(-c4ccccc4)c4ccccc4nc-3cc2Nc2cccnc2C)CC1 (stereo not drawn) [TBI-076],0.042
7,"COc1ncccc1Nc1cc2nc3ccccc3n(-c3ccccc3)c-2c/c1=N\C1CCCCC1 [TBI-079, 5-Phenyl-3-cyclohexylimino-2-(2-methoxy-3-pyridyl)amino-3,5-dihydrophenazine]",0.068
8,"c1ccc(-n2c3c/c(=N\C4CCN(C5CCCC5)CC4)c(Nc4cccnc4)cc-3nc3ccccc32)cc1 [TBI-060, 5-Phenyl-3-(N-cyclopentyl-4-piperidyl)imino-2-(3-pyridyl)amino-3,5-dihydrophenazine]",1
9,"CC(C)/N=c1\cc2n(-c3cccc([S+](C)[O-])c3)c3ccccc3nc-2cc1Nc1cccnc1 (stereo not drawn) [TBI-455, 5-(3-Methylsulfinylphenyl)-3-(1-methylethyl)imino-2-(3-pyridyl)amino-3,5-dihydrophenazine]",0.5
10,"COC1CCC(/N=c2\cc3n(-c4ccc(C)cc4)c4ccccc4nc-3cc2Nc2cccnc2C)CC1 (stereo not drawn) [TBI-322, 5-(4-Methylphenyl)-3-(4-methoxycyclohexyl)imino-2-(2-methyl-3-pyridyl)amino-3,5-dihydrophenazine]",0.092
11,"CC(=O)Nc1ccc(Nc2cc3nc4ccccc4n(-c4ccc(C(F)(F)F)cc4)c-3c/c2=N\C2CCC(O)CC2)cn1 (stereo not drawn) [TBI-714, 5-(4-Trifluoromethylphenyl)-3-(4-hydroxycyclohexyl)imino-2-(6-acetamino-3-pyridyl)amino-3,5-dihydrophenazine]",0.686
12,"COC1CCC(/N=c2\cc3n(-c4ccc(C(F)(F)F)cc4)c4ccccc4nc-3cc2Nc2cncc(C)c2)CC1 (stereo not drawn) [TBI-724, 5-(4-Trifluoromethylphenyl)-3-(4-methoxycyclohexyl)imino-2-(5-meth-3-pyridyl)amino-3,5-dihydrophenazine]",0.03
13,"CC(C)CN1CCC(/N=c2\cc3n(-c4ccc(OC(F)(F)F)cc4)c4ccccc4nc-3cc2Nc2cccnc2)CC1 [TBI-158, 5-(4-Trifluoromethoxyphenyl)-3-(N-isobutyl-4-piperidyl)imino-2-(3-pyridyl)amino-3,5-dihydrophenazine]",0.03
14,"Cc1ncccc1Nc1cc2nc3ccccc3n(-c3cccc(OC(F)(F)F)c3)c-2c/c1=N\C1CCOCC1 [TBI-1035, 5-(3-Trifluoromethoxyphenyl) 3-(4-tetrahydropyranyl)imino-2-(2-methyl-3-pyridyl)amino-3,5-dihydrophenazine]",0.062
15,"Cc1ccncc1Nc1cc2nc3ccccc3n(-c3ccc(F)cc3)c-2c/c1=N\C1CC1 [TBI-940, 5-(4-Fluorophenyl)-3-cyclopropylimino-2-(4-methyl-3-pyridyl)amino-3,5-dihydrophenazine]",0.062
16,"COc1ncccc1Nc1cc2nc3cc(F)ccc3n(-c3ccc(Cl)cc3)c-2c/c1=N\C1CCC(OC)CC1 (stereo not drawn) [TBI-936, 8-Fluoro-5-(4-chlorophenyl)-3-(4-methoxycyclohexyl)imino-2-(2-methoxy-3-pyridyl)amino-3,5-dihydrophenazine]",0.06
17,"COc1ncccc1Nc1cc2nc3ccccc3n(-c3cccc(OC(F)(F)F)c3)c-2c/c1=N\C(C)C [TBI-1038, 5-(3-Trifluoromethoxyphenylethylethyl)imino-2-(2-methoxy-3-pyridyl)amino-3,5-dihydrophenazine]",0.118
18,"Brc1ccc(-n2c3c/c(=N\C4CC4)c(Nc4cccnc4)cc-3nc3ccccc32)cc1 [TBI-090, 5-(4-Bromophenyl)-3-cyclopropylimino-2-(3-pyridyl)amino-3,5-dihydrophenazine]",0.016
19,"COC1CCC(/N=c2\cc3n(-c4ccc(Br)cc4)c4ccccc4nc-3cc2Nc2cccnc2C)CC1 (stereo not drawn) [TBI-509, 5-(4-Bromophenyl)-3-(4-methoxycyclohexyl)imino-2-(2-methyl-3-pyridyl)amino-3,5-dihydrophenazine]",0.015
